Measured values reported in article PMC11292009, “Mapping protein binding sites by photoreactive fragment pharmacophores” (Communications Chemistry, 2024).
Values joined by “and” are separate entries in the source; they are usually repeats but may differ in a detail not shown here. Equal values may be shown once.

Tests used:
Format in all cases: binding
[1] = system: carbonic anhydrase II (CA); test: Intact protein MS photoaffinity labeling screen, carbonic anhydrase; settings: intact protein MS after 10 min irradiation
Procedure, shortened: (§1)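 Read-out: intact protein MS taken straight from the plate, with successful labeling seen as added mass on the protein and expressed as labeling %. Beforehand, every fragment sat alone in a well with the protein for 15 min so non-covalent interactions could form.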

BRD4-BD1 = system: T1, BRD4-BD1; test: Intact MS photoaffinity labeling screen, BRD4-BD1 (302 nm, LCMS-TOF); settings: for MS labeling percentage, BRD4: BRD4-BD1, 302 nm 10 min
T1 construct: screened the PhP library against the first bromodomain of BRD4 (BRD4-BD1); purchased GSK/GenScript
Procedure, shortened: (§2)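 Labeling detected as mass additions in deconvoluted intact-protein LCMS-TOF spectra. Protein at 1 μM in PBS was first mixed with one fragment per well on ice for 15 min, followed by 10 min UV exposure at 302 nm.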

KRas^G12D = system: T2, KRas^G12D; test: Intact MS photoaffinity labeling screen, KRas G12D (302 nm, LCMS-TOF); settings: for MS labeling percentage, KRas: KRas G12D, 302 nm 10 min
T2 construct: purchased GSK/GenScript
Procedure, shortened: as §2

lysozyme (Lyo) = test: Intact protein MS photoaffinity labeling screen, lysozyme; settings: intact protein MS after 10 min irradiation
Procedure, shortened: as §1

myoglobin (Myo) = test: Intact protein MS photoaffinity labeling screen, myoglobin; settings: intact protein MS after 10 min irradiation
Procedure, shortened: as §1

STAT5B-NTD [2] = system: T3, STAT5B-NTD; test: Intact MS photoaffinity labeling screen, STAT5B-NTD (365 nm, UHPLC-MS); settings: for MS labeling percentage, STAT5B: STAT5B-NTD, 365 nm 10 min, no photocatalyst;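 for MS labeling percentage, STAT5B: 0.17 µL of 100 mM DMSO fragment stock added to the protein sample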
T3 construct: His-SUMO (N, cleaved yes); made in house; host or cells: E. coli BL21 RILP
Procedure, shortened: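 UV irradiation at 365 nm for 10 min at 4 °C. Labeling read by intact-protein UHPLC-MS, positive ion mode, m/z 100–2000.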

STAT5B-NTD [3] = system: T3, STAT5B-NTD; test: Intact MS labeling screen, STAT5B-NTD conjugated with photocatalyst Ir-G2-PEG3-COOH (450 nm); settings: 450 nm 10 min;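 note: 0.14 µL of 100 mM DMSO fragment stock added to the conjugate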
Procedure, shortened: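 Ir-G2-PEG3-COOH photocatalyst (10 eq) activated 30 min with EDC/NHS/BOP, then conjugated to STAT5B-NTD (7 µM) overnight at RT or 1 h at 37 °C in dark. PhP added, 1 h dark, then 450 nm irradiation 10 min at 4 °C; labeling read by intact LC-MS, positive ion mode, m/z 100–2000.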

[4] = system: CA, Lyo, Myo, BRD4-BD1, KRas G12D, STAT5B-NTD; test: Intact MS labeling compared over all protein targets; settings: each of the other targets
Method: Using a plate-based format with one fragment per well, each fragment was incubated with the target proteins for 15 min to allow for the formation of non-covalent interactions. The plate was then irradiated at 302 or 365 nm for 10 min to enable the bound fragments to crosslink to the protein[26]. Finally, the results were directly analyzed from the plate using intact protein mass spectrometry by observing the mass additions that correspond to successful labeling (Fig. 2c, for labeling % values see Supplementary data). The library was first characterized against three benchmark proteins like carbonic anhydrase (CA), lysozyme (Lyo), and myoglobin (Myo).
The PhP library was screened against BRD4-BD1 and KRas^G12D as follows. Using a Labcyte Echo® 555 Liquid Handler, 150 nL of fragment solution (20 mM) was transferred into a Greiner 384 low-volume plate (white) to prepare the probe plate. The probe plate was placed on ice. 15 μL of protein stock solution (1 μM BRD4-BD1 (GSK/GenScript) or KRas^G12D (GSK/GenScript) in PBS buffer) was dispensed into wells containing fragments. The plate was left on ice for 15 min for incubation, then irradiated at 302 nm for 10 min, and centrifuged (1000 rpm, 1 min) to remove any bubbles. The plate was then analyzed by LCMS-TOF mass spectrometry (Agilent 1200 series liquid chromatography with Agilent Bio-HPLC PLRP-S (1000 Å, 5 µm × 50 mm × 1.0 mm, PL1312-1502) reverse phase HPLC column at 70 °C equipped with an Agilent G6224 time-of-flight (ToF), see Supplementary Note 2 for the full protocols). The deconvoluted spectra were analyzed using R Studio software.
During the analysis, the column temperature was maintained at a constant 60 °C, and a sample volume of 3 µL was injected for each analysis. Data acquisition was conducted in positive ion mode within the m/z 100–2000 (mass-to-charge ratio) range. For the full protocol and spectra of the hits, see Supplementary Note 2.

[5] = experimental hit status flag (0/1)
[6] = PhP library sheet "PhP", binary flag printed as 0 or 1, key not given
[7] = hit status flag, 1 = hit, 0 = no hit

Row | SMILES | MS labeling percentage, CA [1] | MS labeling percentage, BRD4 (BRD4-BD1) | BRD4-BD1 (BRD4-BD1; [5]) | MS labeling percentage, KRas (KRas^G12D) | KRAS-G12D (KRas^G12D; [5]) | MS labeling percentage, Lyo (lysozyme (Lyo)) | MS labeling percentage, Myo (myoglobin (Myo)) | MS labeling percentage, STAT5B (STAT5B-NTD [2]) | STAT5B-NTD (STAT5B-NTD [2]; [5]) | MS labeling percentage, STAT5B+photocat (STAT5B-NTD [3]) | Labeling of the other protein targets (vs. preferred target) [4] | BRD4-BD1 (experimental hit status) (BRD4-BD1; [6]) | KRAS-G12D (experimental hit status) (KRas^G12D; [6]) | STAT5B-NTD (experimental hit status) (STAT5B-NTD [2]; [6]) | BRD4-BD1 (experimental hit status) (BRD4-BD1; [7]) | KRAS-G12D (experimental hit status) (KRas^G12D; [7]) | STAT5B-NTD (experimental hit status) (STAT5B-NTD [2]; [7])
1 | CC(Cc1ccc(O)c(O)c1)NC(=O)CCC1(C)N=N1 (stereo not drawn) [PhP001, N1=NC1(C)CCC(=O)NC(C)Cc2ccc(O)c(O)c2] | 0% | 0.6% | 0 | 0% | 0 | 19.2% | 0.2% | 0% | 0 | 0% | > 1% and < 1% | – | – | – | – | – | –
2 | CC1(CCC(=O)NCCc2c[nH]c3ccc(OCc4ccccc4)cc23)N=N1 [PhP081, N1=NC1(C)CCC(=O)NCCc(c[nH]2)c(c23)cc(cc3)OCc4ccccc4] | 0% | 0.5% | – | 0.5% | – | 2.8% | 0.3% | 1% | – | 4% | – | 0 | 0 | 0 | – | – | –
3 | CC1(CCC(=O)NCc2nnc3n2CCC3)N=N1 [PhP083, N1=NC1(C)CCC(=O)NCc(nn2)n(c23)CCC3] | 0.4% | 0.3% | – | 0.2% | – | 0% | 0.1% | 1% | – | 0.7% | – | 0 | 0 | 0 | – | – | –
4 | CC1(CCC(=O)NCCNC(=O)c2ccncc2)N=N1 [PhP084, N1=NC1(C)CCC(=O)NCCNC(=O)c2ccncc2] | 1.6% | 0.9% | – | 0.3% | – | 0% | 0.4% | 0% | – | 0.7% | – | 0 | 0 | 0 | – | – | –
5 | CC1(CCC(=O)NC2CCc3[nH]cnc3C2)N=N1 (stereo not drawn) [PhP085, N1=NC1(C)CCC(=O)NC(CC2)Cc(c23)nc[nH]3] | 0.4% | 0.3% | – | 0.3% | – | 0% | 0.1% | 1% | – | 1.2% | – | 0 | 0 | 0 | – | – | –
6 | CC1(CCC(=O)NC(COCc2ccccc2)C(=O)OCc2ccccc2)N=N1 (stereo not drawn) [PhP086, c1ccccc1COC(=O)C(NC(=O)CCC2(C)N=N2)COCc3ccccc3] | 0.4% | 0.2% | – | 0.3% | – | 0% | 0.2% | 0% | – | 4.6% | – | 0 | 0 | 0 | – | – | –
7 | CC1(CCC(=O)Nc2ccc3oc(CN4CCCC4)nc3c2)N=N1 [PhP089, N1=NC1(C)CCC(=O)Nc2ccc3oc(CN4CCCC4)nc3c2] | 0.4% | 0.2% | – | 0% | – | 0% | 0.1% | 1% | – | 1% | – | 0 | 0 | 0 | – | – | –

Continued, in another order:

Row | MS labeling percentage, CA [1] | SMILES | MS labeling percentage, BRD4 (BRD4-BD1) | BRD4-BD1 (BRD4-BD1; [5]) | MS labeling percentage, KRas (KRas^G12D) | KRAS-G12D (KRas^G12D; [5]) | MS labeling percentage, Lyo (lysozyme (Lyo)) | MS labeling percentage, Myo (myoglobin (Myo)) | MS labeling percentage, STAT5B (STAT5B-NTD [2]) | STAT5B-NTD (STAT5B-NTD [2]; [5]) | MS labeling percentage, STAT5B+photocat (STAT5B-NTD [3]) | Labeling of the other protein targets (vs. preferred target) [4] | BRD4-BD1 (experimental hit status) (BRD4-BD1; [6]) | KRAS-G12D (experimental hit status) (KRas^G12D; [6]) | STAT5B-NTD (experimental hit status) (STAT5B-NTD [2]; [6]) | BRD4-BD1 (experimental hit status) (BRD4-BD1; [7]) | KRAS-G12D (experimental hit status) (KRas^G12D; [7]) | STAT5B-NTD (experimental hit status) (STAT5B-NTD [2]; [7])
8 | 0.5% | Cc1nnc(C(C)NC(=O)CCC2(C)N=N2)[nH]1 (stereo not drawn) [PhP090, Cc([nH]1)nnc1C(C)NC(=O)CCC2(C)N=N2] | 0.3% | – | 0.1% | – | 0% | 0.2% | 0% | – | 0.5% | – | 0 | 0 | 0 | – | – | –
9 | 0.7% | Cn1cnc(CCNC(=O)CCC2(C)N=N2)c1 [PhP091, Cn1cnc(c1)CCNC(=O)CCC2(C)N=N2] | 0.2% | – | 0.2% | – | 0% | 0.1% | 0% | – | 0.3% | – | 0 | 0 | 0 | – | – | –
10 | 0.5% | Cc1nnc(CNC(=O)CCC2(C)N=N2)[nH]1 [PhP093, Cc1nnc([nH]1)CNC(=O)CCC2(C)N=N2] | 0.5% | – | 0.3% | – | 0% | 0.2% | 2% | – | 0.5% | – | 0 | 0 | 0 | – | – | –
11 | 0.4% | CC1(CCC(=O)NCCNC(=O)Nc2ccccc2)N=N1 [PhP094, N1=NC1(C)CCC(=O)NCCNC(=O)Nc2ccccc2] | 1.1% | – | 0.5% | – | 0.9% | 0.1% | 1% | – | 2.1% | – | 0 | 0 | 0 | – | – | –
12 | 0.2% | Cn1nccc1C(=O)NCCNC(=O)CCC1(C)N=N1 [PhP095, Cn1nccc1C(=O)NCCNC(=O)CCC2(C)N=N2] | 0.4% | – | 0.1% | – | 0% | 0.1% | 0% | – | 2.4% | – | 0 | 0 | 0 | – | – | –
13 | 0% | CC1(CCC(=O)NCCN2CCN(c3ccc(C(F)(F)F)cn3)CC2)N=N1 [PhP096, N1=NC1(C)CCC(=O)NCCN2CCN(CC2)c3ccc(cn3)C(F)(F)F] | 0.3% | – | 0% | – | 0% | 0.1% | 0% | – | 1.1% | – | 0 | 0 | 0 | – | – | –
14 | 0.1% | CN(C)CC(=O)Nc1cccc(NC(=O)CCC2(C)N=N2)c1 [PhP100, CN(C)CC(=O)Nc1cccc(c1)NC(=O)CCC2(C)N=N2] | 0.6% | – | 0% | – | 0% | 0.1% | 1% | – | 0% | – | – | – | – | 0 | 0 | 0
